Reference: patent US20210309657A1, “TRICYCLIC COMPOUNDS FOR THE TREATMENT AND PROPHYLAXIS OF BACTERIAL INFECTION” (Hoffmann-La Roche Inc., priority 2018, published 2021)
≈ marks a conversion by molar mass, not a printed value.

What was measured:
S. aureus (ATCC29213) = test: 50% growth inhibitory concentration (IC50) determination assay, S. aureus; assay type: cell-based; details: Staphylococcus aureus, growth inhibition, Iso-Sensitest broth, OD 600 nm over 16h, <0.098 = the detection limit
Protocol: (§1) The in vitro antimicrobial activity of the compounds against S. aureus (ATCC29213), K. pneumoniae (ATCC10031), and A. baumannii (ATCC17978), was determined according to the following procedure: The assay used a 10-points Iso-Sensitest broth medium to measure quantitatively the in vitro activity of the compounds against S. aureus ATCC29213, K. pneumoniae ATCC 10031, and A. baumannii ATCC17978. Stock compounds in DMSO were serially two-fold diluted (range from 50 to 0.097 μM final concentration) in 384 wells microtiter plates and inoculated with 49 μL the bacterial suspension in Iso-Sensitest broth medium to have a final cell concentration of ˜5×10^5 CFU/mL in a final volume/well of 50 μL/well. Microtiter plates were incubated at 35±2° C. Bacterial cell growth was determined with the measurement of optical density at λ=600 nm each 20 minutes over a time course of 16h. Growth inhibition was calculated during the logarithmic growth of the bacterial cells with determination of the concentration inhibiting 50% (IC50) of the growth. Compounds of the present invention were tested for their concentration inhibiting 50% (IC50). The data of IC50 over S. aureus (ATCC29213), K. pneumoniae (ATCC10031), and A. baumannii (ATCC17978) are illustrated in Table 4.

A. baumannii (ATCC17978) = test: 50% growth inhibitory concentration (IC50) determination assay, A. baumannii; assay type: cell-based; details: Acinetobacter baumannii, growth inhibition, Iso-Sensitest broth, OD 600 nm over 16h, <0.098 = the detection limit
Protocol: as §1

[1] = Lyophilisation solubility assay (LYSA); assay type: physicochemical; details: aqueous buffer, thermodynamic from solid; 0.05 M phosphate buffer, pH 6.5; HPLC-UV; <1.0 = the detection limit; read-out: Lysa
Protocol: The solubility of compounds of present invention was assessed by LYSA assay. Samples were prepared in duplicate from 10 mM DMSO stock solutions ([…]) diluted in 30 μL pure DMSO. After evaporation of DMSO with a centrifugal vacuum evaporator, the residue was dissolved in 0.05 M phosphate buffer (150 μL, pH 6.5), which was stirred for one hour and shook for two hours. After one night, the solution was filtered using a microtiter filter plate. Then the filtrate and its 1/10 dilution were analyzed by HPLC-UV. In addition, a four-point calibration curve was prepared from the 10 mM stock solutions and used for the solubility determination of the compounds.

[2] = system: K. pneumoniae (ATCC10031); test: 50% growth inhibitory concentration (IC50) determination assay, K. pneumoniae; assay type: cell-based; details: Klebsiella pneumoniae, growth inhibition, Iso-Sensitest broth, OD 600 nm over 16h, <0.098 = the detection limit
Protocol: as §1

| SMILES | IC50 (S. aureus (ATCC29213)) [nM] | IC50 (A. baumannii (ATCC17978)) [nM] | solubility thermodynamic [1] [µg/mL] | IC50 [2] [nM] |
| --- | --- | --- | --- | --- |
| CNc1cc(F)cc2c1[nH]c1ncc(-c3cncc(C#N)c3)c(N3CCC4(C[C@H]4N)C3)c12 (stereo in doubt) [Example 1.16, 5-[6-Fluoro-8-(methylamino)-4-[cis-2-amino-5-azaspiro[2.4]heptan-5-yl]-9H-pyrido[2,3-b]indol-3-yl]pyridine-3-carbonitrile] | 867 | 104 | 32 (≈ 74.9 µM) | < 98 |
| CNc1cc(F)c(F)c2c1[nH]c1ncc(-c3cnc(OC)nc3)c(N3CCC4(C[C@@H]4N)C3)c12 (stereo in doubt) [Example 1.35, 4-[Trans-2-amino-5-azaspiro[2.4]heptan-5-yl]-5,6-difluoro-3-(2-methoxypyrimidin-5-yl)-N-methyl-9H-pyrido[2,3-b]indol-8-amine] | 184 | < 98 | 90 (≈ 199 µM) | < 98 |
| CCNc1cc(F)c(F)c2c1[nH]c1ncc(-c3cncc(C#N)c3)c(N3CC[C@@H](N)C3)c12 [Example 1.04, 5-[4-[(3R)-3-Aminopyrrolidin-1-yl]-8-(ethylamino)-5,6-difluoro-9H-pyrido[2,3-b]indol-3-yl]pyridine-3-carbonitrile] | 380 | 212 | 145 (≈ 335 µM) | < 98 |
| CCNc1cc(F)c(F)c2c1[nH]c1ncc(-c3cncc(C#N)c3)c(N3CCC(CN)C3)c12 (stereo not shown) [Example 1.07, 5-[4-[3-(Aminomethyl)pyrrolidin-1-yl]-8-(ethylamino)-5,6-difluoro-9H-pyrido[2,3-b]indol-3-yl]pyridine-3-carbonitrile] | 1090 | 110 | 39 (≈ 87.2 µM) | < 98 |
| CCNc1cc(F)c(F)c2c1[nH]c1ncc(-c3cnc(OC)nc3)c(N3CCC(CN)C3)c12 (stereo not shown) [Example 1.08, 4-[3-(Aminomethyl)pyrrolidin-1-yl]-N-ethyl-5,6-difluoro-3-(2-methoxypyrimidin-5-yl)-9H-pyrido[2,3-b]indol-8-amine] | 789 | 243 | 83 (≈ 183 µM) | < 98 |
| CNc1cc(F)c(F)c2c1[nH]c1ncc(-c3cncc(C#N)c3)c(N3CCC(CN)C3)c12 (stereo not shown) [Example 1.13, 5-[4-[3-(Aminomethyl)pyrrolidin-1-yl]-5,6-difluoro-8-(methylamino)-9H-pyrido[2,3-b]indol-3-yl]pyridine-3-carbonitrile] | 1500 | 764 | 46 (≈ 106 µM) | < 98 |
| CCNc1cc(F)cc2c1[nH]c1ncc(-c3cncc(C#N)c3)c(N3CCCC(CN)C3)c12 (stereo not shown) [Example 1.14, 5-[4-[3-(Aminomethyl)-1-piperidyl]-8-(ethylamino)-6-fluoro-9H-pyrido[2,3-b]indol-3-yl]pyridine-3-carbonitrile] | 1210 | < 98 | 10 (≈ 22.5 µM) | < 98 |
| CNc1cc(F)c(F)c2c1[nH]c1ncc(-c3cncc(C#N)c3)c(N3CCC(F)(CN)C3)c12 (stereo not shown) [Example 1.22, 5-[4-[3-(Aminomethyl)-3-fluoro-pyrrolidin-1-yl]-5,6-difluoro-8-(methylamino)-9H-pyrido[2,3-b]indol-3-yl]pyridine-3-carbonitrile] | 224 | 112 | 11 (≈ 24.4 µM) | < 98 |
| CNc1cc(F)c(F)c2c1[nH]c1ncc(-c3cnc(OC)nc3)c(N3CC4CC4(CN)C3)c12 (stereo not shown) [Example 1.27, 4-[1-(Aminomethyl)-3-azabicyclo[3.1.0]hexan-3-yl]-5,6-difluoro-3-(2-methoxypyrimidin-5-yl)-N-methyl-9H-pyrido[2,3-b]indol-8-amine] | 522 | 340 | 74 (≈ 164 µM) | < 98 |
| CNc1cc(F)c(F)c2c1[nH]c1ncc(-c3cnc(OC)nc3)c(N3CCC(F)(CN)C3)c12 (stereo not shown) [Example 1.28, 4-[3-(aminomethyl)-3-fluoro-pyrrolidin-1-yl]-5,6-difluoro-3-(2-methoxypyrimidin-5-yl)-N-methyl-9H-pyrido[2,3-b]indol-8-amine] | 227 | 115 | 88 (≈ 192 µM) | < 98 |
| CNc1cc(F)c(F)c2c1[nH]c1ncc(-c3cncc(C#N)c3)c(N3CC4CC4(CN)C3)c12 (stereo not shown) [Example 1.32, 5-[4-[1-(Aminomethyl)-3-azabicyclo[3.1.0]hexan-3-yl]-5,6-difluoro-8-(methylamino)-9H-pyrido[2,3-b]indol-3-yl]pyridine-3-carbonitrile] | 1240 | 472 | 10 (≈ 22.4 µM) | < 98 |

More lines, in order of falling IC50 (S. aureus (ATCC29213)), values ahead:

| IC50 (S. aureus (ATCC29213)) [nM] | IC50 (A. baumannii (ATCC17978)) [nM] | solubility thermodynamic [1] [µg/mL] | IC50 [2] [nM] | SMILES |
| --- | --- | --- | --- | --- |
| 1790 | < 98 | 28 (≈ 64.8 µM) | < 98 | CCNc1cc(Cl)cc2c1[nH]c1ncc(-c3cncc(C#N)c3)c(N3CC[C@@H](N)C3)c12 [Example 1.05, 5-[4-[(3R)-3-Aminopyrrolidin-1-yl]-6-chloro-8-(ethylamino)-9H-pyrido[2,3-b]indol-3-yl]pyridine-3-carbonitrile] |
| 1380 | < 98 | – | 238 | CNc1cc(F)c(F)c2c1[nH]c1ncc(-c3cnc4ccnn4c3)c(N(C)C)c12 [Example 1.62, 5,6-Difluoro-N4,N4,N8-trimethyl-3-pyrazolo[1,5-a]pyrimidin-6-yl-9H-pyrido[2,3-b]indole-4,8-diamine] |
| 1270 | < 98 | 124 (≈ 266 µM) | < 98 | CCNc1cc(C(F)(F)F)cc2c1[nH]c1ncc(-c3cncc(C#N)c3)c(N3CCC(N)C3)c12 (stereo not shown) [Example 1.20, 5-[4-(3-Aminopyrrolidin-1-yl)-8-(ethylamino)-6-(trifluoromethyl)-9H-pyrido[2,3-b]indol-3-yl]pyridine-3-carbonitrile] |
| 993 | < 98 | – | < 98 | CCNc1cc(F)cc2c1[nH]c1ncc(-c3cnc(OC)nc3)c(N3CCC[C@@H](CN)C3)c12 [Example 1.52, (S)-4-(3-(Aminomethyl)piperidin-1-yl)-N-ethyl-6-fluoro-3-(2-methoxypyrimidin-5-yl)-9H-pyrido[2,3-b]indol-8-amine] |
| 712 | 683 | 31 (≈ 70.5 µM) | < 98 | CNc1cc(F)c(F)c2c1[nH]c1ncc(-c3cnc(OC)nc3)c(N3CCC(CN)C3)c12 (stereo not shown) [Example 1.19, 4-[3-(Aminomethyl)pyrrolidin-1-yl]-5,6-difluoro-3-(2-methoxypyrimidin-5-yl)-N-methyl-9H-pyrido[2,3-b]indol-8-amine] |
| 603 | 157 | 93 (≈ 206 µM) | < 98 | CNc1cc(F)c(F)c2c1[nH]c1ncc(-c3cnc(OC)nc3)c(N3CCC4(C[C@H]4N)C3)c12 (stereo in doubt) [Example 1.34, 4-[Cis-2-amino-5-azaspiro[2.4]heptan-5-yl]-5,6-difluoro-3-(2-methoxypyrimidin-5-yl)-N-methyl-9H-pyrido[2,3-b]indol-8-amine] |
| 567 | 249 | 195 (≈ 444 µM) | < 98 | CCNc1cc(F)c(F)c2c1[nH]c1ncc(-c3cnc(OC)nc3)c(N3CC[C@@H](N)C3)c12 [Example 1.18, 4-[(3R)-3-Aminopyrrolidin-1-yl]-N-ethyl-5,6-difluoro-3-(2-methoxypyrimidin-5-yl)-9H-pyrido[2,3-b]indol-8-amine] |
| 526 | 672 | 169 (≈ 403 µM) | < 98 | CNc1cc(F)c(F)c2c1[nH]c1ncc(-c3cncc(C#N)c3)c(N3CC[C@@H](N)C3)c12 [Example 1.15, 5-[4-[(3R)-3-Aminopyrrolidin-1-yl]-5,6-difluoro-8-(methylamino)-9H-pyrido[2,3-b]indol-3-yl]pyridine-3-carbonitrile] |
| 238 | 147 | 190 (≈ 424 µM) | < 98 | CCNc1cc(F)c(F)c2c1[nH]c1ncc(-c3cnc4ccnn4c3)c(N3CCC(N)C3)c12 (stereo not shown) [Example 1.09, 4-(3-Aminopyrrolidin-1-yl)-N-ethyl-5,6-difluoro-3-pyrazolo[1,5-a]pyrimidin-6-yl-9H-pyrido[2,3-b]indol-8-amine] |
| 206 | 387 | 17 (≈ 39.2 µM) | < 98 | CNc1cc(F)c(F)c2c1[nH]c1ncc(-c3cncc(C#N)c3)c(N3CCCC(N)C3)c12 (stereo not shown) [Example 1.46, 5-(4-(3-Aminopiperidin-1-yl)-5,6-difluoro-8-(methylamino)-9H-pyrido[2,3-b]indol-3-yl)nicotinonitrile] |
